Test [1] has as its system CM2005.1 conjunctival melanoma cell line. Description: SRB cell viability assay, CM2005.1. The test is classed as cell-based, Human. On the procedure: TLD1433 is known to generate reactive oxygen species (ROS) with high quantum efficacy in many cancer cell lines. However, there is no report of the in vitro toxicity of this compound in eye melanoma (UM) cell lines. We determined the cell viability of three conjunctival melanoma cell lines (CRMM1, CRMM2 and CM2005.1), and three uveal melanoma cell lines (OMM1, OMM2.5, MEL270) in the presence of TLD1433, both in the dark or under green light irradiation (21 mW/cm^2, 19 J/cm^2, 520 nm, 15 min), and compared this viability to epidermoid carcinoma A431 and cutaneous melanoma A375 cell lines under the same conditions. The protocol used was based on previous work from the Bonnet group, and differed slightly from recommendations from McFarland et al.. […] The effective concentration (EC50) values, i.e., the concentration required to reduce cell viability by 50% compared to untreated wells, were assessed by fitting the dose-response curves with a Hill equation. The phototoxicity index (PI), defined as the ratio of the dark EC50 to the light EC50, was also calculated and represents the amplification of TLD1433 activity with a light trigger. […]
Figure 2 Cell viability after TLD1433 treatment of eight tumour cell lines (CRMM1, CRMM2, CM2005.1, OMM1, OMM2.5, MEL270, A431, A375). […] The absorbance of Sulforhodamine B in solution was measured at 520 nm. […]
At day 0, cells were detached using 1mL of trypsin, resuspended in 4 mL of media and transferred to a 15 mL corning falcon tube. Cells were counted using trypan blue and BioRad® TC20™ automated cell counter (Figure 11). Dilutions of 6000 (CRMM1), 6000 (CRMM2), 8000 (CM2005.1), 6000 (OMM1), 6000 (OMM2.5), 6000 (MEL270) 8000 (A431), and 4000 (A375) cells/well were calculated from each cell suspension at a final volume of 6 mL using the following formula: Vc=(Vt×10C)/Lc where Vt = total volume of solution, C = number of cells per well/per 100 μL and Lc = live cells count (cells/mL). […] Next day, the dye was dissolved using Tri-base (0.25%) and absorbance of SRB at 510 nm was recorded from each well using a Tecan plate reader. […]

Test [2] deals with CRMM1 engrafted cells in zebrafish orthotopic model. Nature of the test: In situ TUNEL assay, CRMM1 orthotopic zebrafish model. The test is classed as in vivo, Zebrafish (Danio rerio). As to conditions: RO 2.3 mM. On the procedure: In situ TUNEL assay on fixed embryos was used to detect TLD1433 induced apoptosis in zebrafish CRMM1 and CRMM2 orthotopic tumour models at 4 dpi after light activation of 2.3 mM TLD1433, administrated by retro orbital injection. The DNA strand breaks in apoptotic tumour cells were stained with fluorescein and visualized as a green signal.
Figure 10 TUNEL assay of in CRMM1 and CRMM2 orthotopic model after RO of TLD1433. Red fluorescent CRMM1 (A) and CRMM2 (B) cells were injected at 2dpf behind the ZF eye and divided into four groups for drug treatment. RO administration of vehicle control and TLD1433 was performed as described in Figure 9C,E. After dark or light exposure (21 mW/cm^2, 114 J.cm^−2, 520 nm) embryos were fixed and TUNEL staining was performed. Representative images of embryos are shown in this figure. (A,B) In TLD1433 light groups nuclear DNA fragmentation by nucleases is detected by co-localization of green (DNA fragments) and red signal of engrafted CM cells, depicted as yellow signal and marked by white arrows. In control dark, control light, TLD1433 dark, there are no positive green apoptotic tumour cells observed. […] Experiment was performed 3 times with a group size of 10 embryos.
The zebrafish larvae were fixed overnight with 4% PFA at 4 °C. Embryos were washed in PBST for 5 min and dehydrated by a graded methanol series until reaching 100% methanol. […]

Structures are written as SMILES. Where two headings read alike, the source gives them in different places.

For orientation: EC50 means the concentration giving half of the maximal effect. Take `Cc1ccnc(-c2cc(C)ccn2)c1.Cc1ccnc(-c2cc(C)ccn2)c1.[Cl-].[Cl-].[Ru+2].c1csc(-c2ccc(-c3ccc(-c4nc5c6cccnc6c6ncccc6c5[nH]4)s3)s2)c1` [TLD1433]: the EC50 in test [1] (CM2005.1, dark, 24 h treatment, SRB, read-out: EC50, dark) is 1100 nM; in test [1] (CM2005.1, green light 520 nm, 15 min, 21 mW/cm^2, 19 J.cm^−2, DLI 24 h, read-out: EC50,light) it was 5.8 nM. Besides, the “PI (photo index)” value in test [1] (CM2005.1, ratio of dark and light EC50, 19 J.cm^−2 green light) was 190. Also, the “TUNEL apoptosis of engrafted cells (in words)” value is “no positive green signal detected” in test [2] (dark, 4 dpi); “induced CRMM1 and CRMM2 cell apoptosis” in test [2] (light 114 J.cm^−2, 4 dpi).

(Values after publication PMC7139549, “TLD1433 Photosensitizer Inhibits Conjunctival Melanoma Cells in Zebrafish Ectopic and Orthotopic Tumour Models” (Cancers, 2020).)
